The source of these data is ChEMBL document CHEMBL1201861, “Genomics of Drug Sensitity in Cancer screening data, Wellcome Trust Sanger Institute”.

What all share (experiment): cells
The test system of one assay is TE-441-T. Type of assay: functional, cell-based, Homo sapiens. Conditions: Homo sapiens, TE-441-T.
A further assay has as its system TE-15. Type of assay: functional, cell-based, Homo sapiens. Conditions: Homo sapiens, TE-15.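 Note: cell viability readout of growth inhibition in TE-15 cells.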
The next assay has as its system SIG-M5. In kind it is functional, cell-based, Homo sapiens. The following applies: Homo sapiens, SIG-M5.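 Note: cell viability assay read-out, measuring how strongly growth of cultured human SIG-M5 cells is inhibited.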
A further assay has as its system JIYOYE. In kind it is functional, cell-based, Homo sapiens. The following applies: Homo sapiens, JIYOYE.
The next assay deals with CAL-148. Type of assay: functional, cell-based, Homo sapiens. The following applies: Homo sapiens, CAL-148.
A further assay concerns NCI-H716. In kind it is functional, cell-based, Homo sapiens. The following applies: Homo sapiens, NCI-H716.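 Note: growth inhibition of human NCI-H716 cells, measured by a cell viability assay.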
A further assay concerns ECC4. Type of assay: functional, cell-based, Homo sapiens. The following applies: Homo sapiens, ECC4.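 Note: growth inhibition of ECC4 cells, read out with a cell viability assay.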
For another assay, the system named is SCC-3. In kind it is functional, cell-based, Homo sapiens. Conditions: Homo sapiens, SCC-3.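 Note: cell viability assay measuring inhibition of SCC-3 cell growth.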
A further assay relates to GDM-1. In kind it is functional, cell-based, Homo sapiens. Conditions: Homo sapiens, GDM-1; read-out: IC50.
The next assay relates to TALL-1. Type of assay: functional, cell-based, Homo sapiens. Conditions: Homo sapiens, TALL-1.
Another assay has as its system HCC1599. In kind it is functional, cell-based, Homo sapiens. The following applies: Homo sapiens, HCC1599.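 Note: growth inhibition of HCC1599 cells, read out in a cell viability assay.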
The subject of a further assay is SUP-T1. Type of assay: functional, cell-based, Homo sapiens. Conditions: Homo sapiens, SUP-T1.
Another assay concerns NB14. In kind it is functional, cell-based, Homo sapiens. Conditions: Homo sapiens, NB14.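 Note: growth inhibition of NB14 cells measured with a cell viability assay.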
For a further assay, the system named is SNU-16. In kind it is functional, cell-based, Homo sapiens. The following applies: Homo sapiens, SNU-16.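 Note: growth inhibition of human SNU-16 cells, determined with a cell viability readout.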
The next assay has as its system RPMI-6666. In kind it is functional, cell-based, Homo sapiens. Conditions: Homo sapiens, RPMI-6666.
A further assay relates to P31-FUJ. Type of assay: functional, cell-based, Homo sapiens. The following applies: Homo sapiens, P31-FUJ.
The test system of another assay is LU-165. Type of assay: functional, cell-based, Homo sapiens. Conditions: Homo sapiens, LU-165.
For the next assay, the system named is D-392MG. Type of assay: functional, cell-based. Conditions: Homo sapiens.

Description for CAL-148: SANGER: Inhibition of human CAL-148 cell growth in a cell viability assay.
Description for ECC4: SANGER: Inhibition of human ECC4 cell growth in a cell viability assay.
Description for GDM-1: SANGER: Inhibition of human GDM-1 cell growth in a cell viability assay.
Description for HCC1599: SANGER: Inhibition of human HCC1599 cell growth in a cell viability assay.
Description for JIYOYE: SANGER: Inhibition of human JiyoyeP-2003 cell growth in a cell viability assay.
Description for LU-165: SANGER: Inhibition of human LU-165 cell growth in a cell viability assay.
Description for NB14: SANGER: Inhibition of human NB14 cell growth in a cell viability assay.
Description for NCI-H716: SANGER: Inhibition of human NCI-H716 cell growth in a cell viability assay.
Description for P31-FUJ: SANGER: Inhibition of human P31-FUJ cell growth in a cell viability assay.
Description for RPMI-6666: SANGER: Inhibition of human RPMI-6666 cell growth in a cell viability assay.
Description for SCC-3: SANGER: Inhibition of human SCC-3 cell growth in a cell viability assay.
Description for SIG-M5: SANGER: Inhibition of human SIG-M5 cell growth in a cell viability assay.
Description for SNU-16: SANGER: Inhibition of human NCI-SNU-16 cell growth in a cell viability assay.
Description for SUP-T1: SANGER: Inhibition of human SUP-T1 cell growth in a cell viability assay.
Description for TALL-1: SANGER: Inhibition of human TALL-1 cell growth in a cell viability assay.
Description for TE-15: SANGER: Inhibition of human TE-15 cell growth in a cell viability assay.
Description for TE-441-T: SANGER: Inhibition of human TE-441-T cell growth in a cell viability assay.

Consider `C[C@@H](Oc1cc(-c2cnn(C3CCNCC3)c2)cnc1N)c1c(Cl)ccc(F)c1Cl` [CRIZOTINIB], for which the IC50 in the assay with TE-441-T, with TE-15, in the assay on SIG-M5, in the assay on JIYOYE, in the assay on CAL-148 and in the assay with NCI-H716 was greater than 2000 nM throughout. Moreover, the IC50 with ECC4 is greater than 2000 nM; in the assay on SCC-3, 357 nM; in the assay with GDM-1, greater than 2000 nM; with TALL-1, greater than 2000 nM; in the assay with HCC1599 it was greater than 2000 nM; in the assay on SUP-T1 it was greater than 2000 nM. Besides, the IC50 with NB14, in the assay on SNU-16, in the assay with RPMI-6666, in the assay with P31-FUJ and in the assay on LU-165 was greater than 2000 nM in each case.
On to `Nc1ccccc1NC(=O)c1ccc(CNC(=O)OCc2cccnc2)cc1` [ENTINOSTAT], for which the IC50 is greater than 5000 nM in the assay with TE-441-T; greater than 5000 nM with TE-15; 578 nM in the assay on SIG-M5; 1350 nM in the assay with JIYOYE; 1330 nM in the assay with CAL-148; greater than 5000 nM in the assay with NCI-H716. Also, the IC50 with ECC4 was 3970 nM; with SCC-3, 61 nM; with GDM-1, 887 nM; in the assay on D-392MG it was greater than 5000 nM; in the assay on TALL-1 it was greater than 5000 nM; in the assay with HCC1599, 516 nM. The IC50 in the assay with SUP-T1 is greater than 5000 nM; with NB14, 726 nM; with SNU-16, greater than 5000 nM; with RPMI-6666, 411 nM; with P31-FUJ, greater than 5000 nM; with LU-165, 618 nM.
With `CC(C)C[C@H](NC(=O)[C@H](Cc1ccccc1)NC(=O)c1cnccn1)B(O)O` [BORTEZOMIB], the concentration for half-maximal inhibition (IC50) in the assay on TE-441-T is greater than 20 nM; with TE-15, 3.43 nM; in the assay on SIG-M5, greater than 20 nM; in the assay with JIYOYE, 5 nM; in the assay on CAL-148 it was greater than 20 nM; with NCI-H716, greater than 20 nM. For the same molecule, the IC50 with ECC4 is greater than 20 nM; with SCC-3, 2.37 nM; in the assay with GDM-1 it was 6.77 nM; in the assay on D-392MG, 1.1 nM; in the assay with TALL-1, greater than 20 nM; in the assay on HCC1599, 11.9 nM. Also, the IC50 is greater than 20 nM in the assay on SUP-T1; 18 nM in the assay on NB14; 7.65 nM with SNU-16; greater than 20 nM in the assay on RPMI-6666; greater than 20 nM with P31-FUJ; greater than 20 nM in the assay with LU-165.
With `C=CC(=O)N1CCCC(Nc2nc(Nc3ccc(N(C)C(=O)CC)cc3)nc3[nH]cnc23)C1` (configuration not stated), the IC50 with TE-441-T was greater than 10200 nM; in the assay with TE-15, 1850 nM; in the assay on SIG-M5, greater than 10200 nM; with JIYOYE it was greater than 10200 nM; in the assay with CAL-148 it was greater than 10200 nM; in the assay with NCI-H716, greater than 10200 nM. Further, the IC50 in the assay with ECC4, in the assay with SCC-3, in the assay on GDM-1, with TALL-1, in the assay on HCC1599 and in the assay on SUP-T1 was greater than 10200 nM each time. In addition, the IC50 in the assay with NB14, in the assay with SNU-16, with RPMI-6666, with P31-FUJ and in the assay on LU-165 was greater than 10200 nM throughout.
Take `NC(=O)c1cccc(-c2cc(Nc3ccc(OC(F)(F)F)cc3)ncn2)c1`: the IC50 with TE-441-T, in the assay with TE-15, in the assay on SIG-M5, in the assay with JIYOYE, in the assay with CAL-148 and in the assay on NCI-H716 was greater than 1280 nM in each case. The IC50 in the assay on ECC4, in the assay on SCC-3, in the assay on GDM-1, in the assay with TALL-1, in the assay with HCC1599 and in the assay with SUP-T1 was greater than 1280 nM in each case. For the same molecule, the IC50 in the assay on NB14, in the assay on SNU-16, with RPMI-6666, in the assay with P31-FUJ and in the assay with LU-165 was greater than 1280 nM each time.

A word on the IC50: it is the concentration at which inhibition is half-maximal.
